Measurements reported in patent US20240173440A1, “HIGH PURITY COPPER RADIOPHARMACEUTICAL COMPOSITIONS AND DIAGNOSTIC AND THERAPEUTIC USES THEREOF” (Nuclidium AG, priority 2022, published 2024).

Assays:
HT-1080.hFAP cells = assay: In vitro cellular uptake (cell surface and internalized fractions) in HT-1080.hFAP cells; type: cell-based, human
Description: (§1) The cellular uptake was studied in vitro using intact cells seeded in 6-well plates overnight. On the day of the experiment, the cells were washed and incubated with each of the exemplified [^61Cu]Cu-radiotracer at different time points, either alone or in the presence of a blocking agent to distinguish between specific and non-specific uptake. At each investigated time point, the medium containing the unbound (free) radiotracer was removed, followed by two washing steps with ice-cold phosphate-buffered saline. The cells were then treated 2×5 min with ice-cold glycine solution (0.05 M, pH 2.8) to detach the cell surface-bound radiotracer (acid released). Afterwards, the cells containing the internalized radiotracer were detached with 1 M NaOH at 37° C. and collected for measurement. The amount of specific cell surface-bound and internalized radiotracer is expressed as percentage of the total applied activity, after subtracting the non-specific values.
as §1, with “^61Cu-labeled conjugate” for “of the exemplified [^61Cu]Cu-radiotracer”
The cells were then preconditioned in 360 μL of assay medium (MEM medium without supplements) at 37° C. for 60 min. 40 μL of a 2 nM solution of ^61Cu-labeled radioligand was added and the cells were incubated at 37° C. The cellular uptake was interrupted at different time points (15 min, 1 hour and 4 hours), by washing twice with ice-cold PBS. Cell surface-bound radioligand was obtained by washing cells twice with ice-cold glycine buffer (pH 2.8), followed by a collection of the internalized fraction with 1 M NaOH. The activity in each fraction was measured in a γ-counter (Cobra II).

hFAP = hFAP (Homo sapiens (Human), UniProt Q12884); assay: Saturation binding on isolated HEK-293.hFAP cell membranes; parameters: Bmax: unit not given here; conditions: 37° C.
hFAP, sequence (Q12884 whole entry): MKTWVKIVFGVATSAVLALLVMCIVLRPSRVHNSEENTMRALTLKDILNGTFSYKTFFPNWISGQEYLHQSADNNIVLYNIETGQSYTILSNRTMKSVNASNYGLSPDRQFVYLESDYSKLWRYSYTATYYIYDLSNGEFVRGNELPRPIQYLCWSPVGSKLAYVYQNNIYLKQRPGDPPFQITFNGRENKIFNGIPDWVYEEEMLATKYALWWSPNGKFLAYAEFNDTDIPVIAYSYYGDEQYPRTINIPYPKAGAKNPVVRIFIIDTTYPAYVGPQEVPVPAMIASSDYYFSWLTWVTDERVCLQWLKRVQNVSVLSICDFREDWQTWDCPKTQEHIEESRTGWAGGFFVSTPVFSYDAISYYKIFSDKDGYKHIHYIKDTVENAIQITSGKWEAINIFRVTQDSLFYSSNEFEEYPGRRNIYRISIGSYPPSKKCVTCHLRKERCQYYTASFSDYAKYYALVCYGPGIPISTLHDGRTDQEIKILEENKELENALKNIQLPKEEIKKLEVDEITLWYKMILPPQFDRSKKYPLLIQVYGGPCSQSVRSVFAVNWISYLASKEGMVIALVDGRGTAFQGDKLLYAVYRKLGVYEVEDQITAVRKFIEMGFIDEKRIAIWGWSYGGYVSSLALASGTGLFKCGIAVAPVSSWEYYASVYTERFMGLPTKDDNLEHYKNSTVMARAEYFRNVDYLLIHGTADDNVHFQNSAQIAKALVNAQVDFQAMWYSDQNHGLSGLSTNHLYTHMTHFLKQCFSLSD
Summary of the method: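 Membranes of HEK-293 cells expressing human FAP (10 μg protein/well) incubated with radioligand in 20 mM HEPES pH 7.4 with MgCl2, 0.2% BSA and protease inhibitors. Nonspecific binding defined with 0.1 mM FAPI-46. KD and Bmax derived from bound fraction versus equilibrium radioligand concentration.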

[1] = tested on: HT-1080.hFAP and HT-1080.wt xenografts; assay: Quantitative biodistribution in HT-1080.hFAP and HT-1080.wt xenografted mice; type: in vivo; conditions: HT-1080.hFAP and HT-1080.wt xenografts
Description: The tumors were allowed to grow to an average volume of 100-200 mm3.
Biodistribution Studies: The xenografted mice were randomized (n=5 per group) and injected intravenously via the tail vein with the ^61Cu-labeled radioligands (100 μL, […], 0.8-1MBq). Mice were euthanized 1h and 4h pi. by CO2 asphyxiation. Organs of interest and blood were collected, rinsed of excess blood, blotted dry, weighed, and counted in a […]. The samples were counted against a suitably diluted aliquot of the injected solution as the standard and the results are expressed as the percentage of the injected activity per gram of tissue (0% I.A./g)+SD.

[2] = Remaining PET activity in the mouse body 4h p.i.; type: in vivo; conditions: mice
Description: PET/CT Imaging: Mice bearing FAP-positive and FAP-negative xenografts were injected intravenously with ^61Cu-labeled radioligands of the present disclosure or ^61Cu-NODAGA-FAPI-46 (100 μL/[…]/6-12 MBq). […] The mice were euthanized by CO2 at 4 hours p.i., and static PET scans were acquired for 30 min.
Remaining PET activity in the mouse body 4h p.i. prior to the 4h scan was determined (Table 36).

- Bmax (hFAP): 9.0-10.3
- Biodistribution Adrenal ([1]; 1 h p.i.): 2.2 ± 0.1 % IA/g
- Biodistribution Blood ([1]; 1 h p.i.): 2.6 ± 0.1 % IA/g
- Biodistribution Femur ([1]; 1 h p.i.): 6.5 ± 0.4 % IA/g
- Biodistribution HT1080.hFAP (FAP-positive tumor) ([1]; 1 h p.i.): 8.4 ± 1.4 % IA/g
- Biodistribution HT1080.wt (FAP-negative tumor) ([1]; 1 h p.i.): 3.1 ± 0.0 % IA/g
- Biodistribution Heart ([1]; 1 h p.i.): 1.1 ± 0.0 % IA/g
- Biodistribution Intestine ([1]; 1 h p.i.): 1.0 ± 0.4 % IA/g
- Biodistribution Kidney ([1]; 1 h p.i.): 1.5 ± 0.1 % IA/g
- Biodistribution Liver ([1]; 1 h p.i.): 0.9 ± 0.0 % IA/g
- Biodistribution Lung ([1]; 1 h p.i.): 1.5 ± 0. % IA/g
- Biodistribution Muscle ([1]; 1 h p.i.): 1.7 ± 0.1 % IA/g
- Biodistribution Pancreas ([1]; 1 h p.i.): 2.0 ± 0.2 % IA/g
- Biodistribution Spleen ([1]; 1 h p.i.): 0.7 ± 0.1 % IA/g
- Biodistribution Stomach ([1]; 1 h p.i.): 1.0 ± 0.1 % IA/g
- Biodistribution Adrenal ([1]; 4 h p.i.): 2.0 ± 0.2 % IA/g
- Biodistribution Blood ([1]; 4 h p.i.): 1.5 ± 0.1 % IA/g
- Biodistribution Femur ([1]; 4 h p.i.): 4.6 ± 0.4 % IA/g
- Biodistribution HT1080.hFAP (FAP-positive tumor) ([1]; 4 h p.i.): 7.7 ± 0.4 % IA/g
- Biodistribution HT1080.wt (FAP-negative tumor) ([1]; 4 h p.i.): 2.5 ± 0.2 % IA/g
- Biodistribution Heart ([1]; 4 h p.i.): 0.7 ± 0.1 % IA/g
- Biodistribution Intestine ([1]; 4 h p.i.): 0.6 ± 0.2 % IA/g
- Biodistribution Kidney ([1]; 4 h p.i.): 1.0 ± 0.1 % IA/g
- Biodistribution Liver ([1]; 4 h p.i.): 0.8 ± 0.2 % IA/g
- Biodistribution Lung ([1]; 4 h p.i.): 1.0 ± 0.1 % IA/g
- Biodistribution Muscle ([1]; 4 h p.i.): 1.4 ± 0.2 % IA/g
- Biodistribution Pancreas ([1]; 4 h p.i.): 1.6 ± 0.1 % IA/g
- Biodistribution Spleen ([1]; 4 h p.i.): 0.5 ± 0.1 % IA/g
- Biodistribution Stomach ([1]; 4 h p.i.): 0.6 ± 0.1 % IA/g
- retention in the body (remaining PET activity) [2]: highest retention in the body
Compound: CN(CCCN1CCN(C(=O)CCC(C(=O)O)N2CCN3CCN(CC2)CC(=O)[O][61Cu][O]C(=O)C3)CC1)c1ccc2nccc(C(=O)NCC(=O)N3CC(F)(F)C[C@H]3C#N)c2c1 (some centres unmarked) [[^61Cu]Cu-NODAGA-FAPI-46]
- Cell surface fraction (HT-1080.hFAP cells; 15 min, HT-1080.hFAP cells, specific uptake (minus HT-1080.wt)): 0.9 ± 0.3 % of the applied activity
- Internalized fraction (HT-1080.hFAP cells; 240 min, HT-1080.hFAP cells, specific uptake (minus HT-1080.wt)): 50.0 ± 6.0 % of the applied activity
- Cell surface fraction (HT-1080.hFAP cells; Time Point 15 min, 0.2 nM): 0.9 ± 0.3 percentage of the total applied activity
- Internalized fraction (HT-1080.hFAP cells; Time Point 240 min, 0.2 nM): 50.0 ± 6.0 percentage of the total applied activity
- accumulation in tumor and target-positive tissues [1]: high accumulation in FAP-positive (HT-1080.hFAP) tumor and murine-FAP-positive tissues
